Source: patent publication US6627441B1, “Increasing levels of growth regulator and/or water stress during embryo development” (priority 1998, dated 2003)

Experiments:
Format in all cases: cell-based
[1] = system: white spruce somatic embryos; assay: Effect of water stress and ABA on somatic embryo moisture contents (Example 4); settings: treatment 2: mannitol 290, 400, 540 mmol/kg with ABA 20, 30, 40 μM; six weeks
Protocol: Water potentials were measured for liquid media containing various osmotica at a range of concentrations, which were plotted on a curve. Determinations were made using a vapour pressure osmometer (Wescor). Moisture content determinations were done using methods described previously by Attree et al. (U.S. Pat. No. 5,464,769).
Embryos were cultured on medium containing 3% sucrose and ABA, with additional osmoticum adjusted to vary water potentials, as shown in Table 4.
Embryos were cultured for six weeks and moisture contents determined. Determinations for each treatment were made weekly, with three replicates per treatment. 50 embryos per replicate were used. In some instances, particularly for the control with low osmoticum, insufficient embryos were produced. In these cases, the minimum number of embryos used per replicate was thirty. For weeks 0 to 2, the embryos were too small to be used for moisture content determinations, so whole tissue was used instead.

[2] = system: Douglas fir somatic embryos; assay: Douglas fir somatic embryogenesis (Example 11); settings: replacing PEG at week 5 or week 6; compared with PEG being maintained
Protocol: Douglas fir may be cultured using sucrose at 1-3% (30-90 mM), however, other sugars may be used at the same concentrations. Maintenance cultures usually contain the sugar at about 1%. […] Douglas fir embryogenic tissue was induced from developing seed. Embryos contained in megametophytes were induced and maintained on TX maintenance medium having 1% sucrose. This medium contained 0.2 g/L glutamine and 0.2 g/L casein hydrolysate. Selected embryogenic tissue was subcultured biweekly per petri dish. Medium was solidified with 2.4 g/L PHYTAGEL™. This medium contained 9 μM 2,4-D and 4.5 μM BA. Liquid suspension cultures were maintained in flasks containing 50 mL liquid maintenance medium Liquid cultures were subcultured weekly. For maturation, the embryogenic suspension was first precultured in liquid medium without growth regulators, and subcultured weekly. The water potential of the maintenance cultures and precultures remained below 150 mmol/kg. After one or two weeks of preculture, 1 to 2 g of filtered tissue was resuspended in 10 mL fresh medium and 0.75 mL of the new suspension was pipetted onto the solid maturation medium. Maturation medium contained calcium chloride at 105 mg/L, and ammonium nitrate was included at 400 mg/L. Glutamine was used at 0.8 g/L for the first week then reduced to 0.1 g/L thereafter. Casein hydrolysate was maintained at 0.2 g/L. The sugar was increased to 2-3% and the medium was solidified with Phytagel at 2.8 to 3.4 g/L. ABA was added into the medium after filter sterilization. The maturation medium also contained PEG. The ABA and water potential were raised following the schedule in the following table.
In some instances, the PEG was reduced and the water potential made up to the desired level using lactose at 0% in the first week, 1% in week 2, 4% in weeks 3 and 4, 5% in week 5, and 6% in week 6. Although this allowed a firmer gel to set than otherwise would occur with PEG alone, it may not provide any other benefit over full PEG (see, for example, Table 8), particularly if liquid culture medium is used. […] The embryos were desiccated and stored in a freezer as described for spruce, or germinated directly without desiccation. For germination, embryos were placed on half-strength basal medium containing 0.4 g/L calcium nitrate, 0.2 g/L ammonium nitrate, no hormones and 2% sucrose and 0.6% agar. These were grown in the light.

[3] = system: somatic seedlings of white spruce; assay: Germination and shoot development after replacing PEG with alternative osmotica (Example 8); settings: for shoot development frequency of somatic seedlings: after 4-5 weeks growth
Protocol: (§1) This experiment was carried out to observe the effect of replacing the non-permeating water stress with a permeating water stress during development. Thus, immature somatic embryos from suspension culture were precultured in 1/20 strength hormone medium for one week then transferred to maturation medium containing 3% sucrose, 20 μM ABA and adjusted to 290 mmol/kg with PEG. They were transferred to fresh medium weekly in which the osmoticum and ABA was increased. For the control (treatment 1) the PEG concentration was increased (as outlined in Example 4, treatment 6). In treatment 2, the PEG remained constant and water potential was increased by adding lactose (treatment 2). In treatment 3, PEG was increased after the first week, then lactose was added at the third and fourth weeks, and in the fifth week PEG was removed and replaced completely with lactose. Treatment 4 was the same as treatment 3, except that sucrose was used in place of lactose. Treatment 5 was similar to treatment 3, except that PEG was replaced with lactose earlier so that PEG was replaced totally by lactose by the fourth week. Total development time was six weeks.
White spruce somatic embryos were produced using all treatments described in Example 6 (replacement of PEG with sucrose or lactose). […] Embryos were desiccated for two weeks, then rehydrated and visually selected for subsequent transfer to fresh medium. The embryos from all treatments germinated to produce root and epicotyl elongation (i e., 100% germination). Subsequent growth differed amongst the treatments. After four to five weeks growth, 87% of somatic seedlings from treatment 1 had visible new shoot growth (new needles). All other treatments had much lower shoot emergence frequencies.

[4] = system: white spruce somatic embryos; assay: PEG replacement during development, maturation frequency (Example 6); settings: treatment 2: PEG constant, lactose added from the third week; versus PEG control; FIG. 2
Protocol: as §1
Each treatment comprised nine replicates. The number of embryos per treatment were scored and means prepared. […] The trend was that as PEG was replaced by permeating osmotica, the maturation frequency declined slightly. […]

Structure (SMILES)	greening of embryos [1]	embryo development result [2]	shoot development frequency of somatic seedlings ([3]; Treatment 4: 13% sucrose mid replacement) [%]	appearance of embryos before desiccation ([3]; treatment 4 of Example 6 (PEG replaced with sucrose))	maturation frequency [4]	shoot development frequency of somatic seedlings ([3]; Treatment 2: 6.6% lactose, partial PEG replacement) [%]	shoot development frequency of somatic seedlings ([3]; Treatment 3: 10% lactose, mid replacement) [%]	shoot development frequency of somatic seedlings ([3]; Treatment 5: 10% lactose early replacement) [%]	appearance of embryos before desiccation ([3]; treatment 5 of Example 6 (PEG replaced early with lactose))
OC[C@@H](O)[C@@H](O)[C@H](O)[C@H](O)CO [mannitol]	greening was prevented								
OC[C@H]1O[C@@](CO)(O[C@H]2O[C@H](CO)[C@@H](O)[C@H](O)[C@H]2O)[C@@H](O)[C@@H]1O [sucrose]		very good results	1.6	very slight splitting of the root cap region					
OC[C@H]1O[C@@H](O[C@H]2[C@H](O)[C@@H](O)C(O)O[C@@H]2CO)[C@H](O)[C@@H](O)[C@H]1O (stereo partly shown) [lactose]		very good results			slight decline	1.5	76.5	49.2	very slight splitting of the root cap region
